Experimental data reported in publication PMC10354055, “An optimized Nurr1 agonist provides disease-modifying effects in Parkinson’s disease models” (Nature Communications, 2023).
Values joined by “and” are separate entries in the source; they are usually repeats but may differ in a detail not shown here. Identical values can stand only once. Each block holds one compound with its values, some of them ahead of it.

How the values were obtained:
[1] = target: T1, Nur77 (Homo sapiens, UniProt P22736); assay: Luciferase reporter assay, Nur77 LBD, SK-N-BE(2)C cells; format: cell-based; details: Fig. 1f, CQ 100 µM, 4A7C-301 20 µM, cytosporone B 10 µM
T1 construct: using LBD of NR4A subfamily members in SK-N-BE(2)C cells; expressed in transfected cells; host or cells: SK-N-BE(2)C
T1 sequence (P22736 360-595 limits assumed, species assumed): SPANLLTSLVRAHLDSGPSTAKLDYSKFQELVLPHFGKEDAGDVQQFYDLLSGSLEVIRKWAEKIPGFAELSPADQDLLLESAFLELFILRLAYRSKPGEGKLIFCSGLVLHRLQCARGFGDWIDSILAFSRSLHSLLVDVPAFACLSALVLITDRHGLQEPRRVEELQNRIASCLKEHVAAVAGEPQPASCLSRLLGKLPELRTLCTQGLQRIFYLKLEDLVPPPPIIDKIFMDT

[2] = target: T2, Nurr1-LBD point mutants (Mus musculus, UniProt Q06219, S441A); assay: Luciferase assay with point-mutants of Nurr1-LBD, SK-N-BE(2)C cells;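 note: Firefly luciferase normalized to beta-galactosidase activity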; format: cell-based; details: Supplementary Fig. 2, S441A
T2 construct: expressed in transfected cells; host or cells: SK-N-BE(2)C
T2 sequence (Q06219 whole entry S441A, the tested form may be a part): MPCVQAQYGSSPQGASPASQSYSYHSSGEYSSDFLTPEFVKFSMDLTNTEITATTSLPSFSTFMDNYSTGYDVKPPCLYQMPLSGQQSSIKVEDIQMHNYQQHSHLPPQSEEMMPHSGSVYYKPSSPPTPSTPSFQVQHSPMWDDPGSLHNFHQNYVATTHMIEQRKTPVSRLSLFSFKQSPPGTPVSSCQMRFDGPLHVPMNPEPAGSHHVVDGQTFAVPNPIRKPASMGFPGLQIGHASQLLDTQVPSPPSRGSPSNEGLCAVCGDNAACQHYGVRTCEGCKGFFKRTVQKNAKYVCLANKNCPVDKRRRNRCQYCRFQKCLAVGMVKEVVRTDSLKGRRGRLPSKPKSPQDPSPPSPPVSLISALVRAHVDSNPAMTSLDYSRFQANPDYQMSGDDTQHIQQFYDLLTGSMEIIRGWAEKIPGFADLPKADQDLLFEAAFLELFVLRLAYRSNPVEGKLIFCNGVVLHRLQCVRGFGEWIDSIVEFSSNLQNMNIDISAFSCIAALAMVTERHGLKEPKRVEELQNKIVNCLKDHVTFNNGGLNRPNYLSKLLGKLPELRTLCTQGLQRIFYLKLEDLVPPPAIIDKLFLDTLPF
Method: (§1) Nurr1 transactivity was normalized to β-galactosidase activity.
(§2) Nurr1 mutants were generated using the QuikChange ǁ XL site-directed mutagenesis kit (Agilent Technologies) according to the manufacturer’s instruction. Mutagenesis reactions were carried out on the plasmid of mouse Nurr1 cloned into pcDNA3.1 backbone, and then verified by sequencing.

[3] = target: T3, Nurr1-LBD point mutants (Mus musculus, UniProt Q06219, K590A); assay: as above; format: cell-based; details: Supplementary Fig. 2, K590A
T3 construct: expressed in transfected cells; host or cells: SK-N-BE(2)C
T3 sequence (Q06219 whole entry K590A, the tested form may be a part): as the sequence (Q06219 whole entry S441A, the tested form may be a part) above, with A441S, K590A counted along it
Method: as §1, §2

[4] = target: T4, Nurr1-LBD point mutants (Mus musculus, UniProt Q06219); assay: as above; format: cell-based; details: Supplementary Fig. 2, WT
T4 construct: expressed in transfected cells; host or cells: SK-N-BE(2)C
T4 sequence (Q06219 whole entry, change not shown, the tested form may be a part): as the sequence (Q06219 whole entry S441A, the tested form may be a part) above, with A441S counted along it
Method: as §1, §2

[5] = target: T5, Nurr1-LBD point mutants (Mus musculus, UniProt Q06219, D594A); assay: as above; format: cell-based; details: Supplementary Fig. 2, D594A
T5 construct: expressed in transfected cells; host or cells: SK-N-BE(2)C
T5 sequence (Q06219 whole entry D594A, the tested form may be a part): as the sequence (Q06219 whole entry S441A, the tested form may be a part) above, with A441S, D594A counted along it
Method: as §1, §2

[6] = target: T6, Nurr1-LBD point mutants (Mus musculus, UniProt Q06219, L593A); assay: as above; format: cell-based; details: Supplementary Fig. 2, L593A
T6 construct: expressed in transfected cells; host or cells: SK-N-BE(2)C
T6 sequence (Q06219 whole entry L593A, the tested form may be a part): as the sequence (Q06219 whole entry S441A, the tested form may be a part) above, with A441S, L593A counted along it
Method: as §1, §2

[7] = tested on: MPTP-induced male mice; assay: Cylinder test, MPTP-induced PD model mice; format: in vivo, mouse
Method: (§3) MPTP (Sigma-Aldrich) was intraperitoneally (i.p.) injected (30 mg/kg) for 5 days (Day 1-5). […] To test dyskinetic involuntary behavior, an L-DOPA injected group was included, which received 50 mg/kg of L-DOPA and 15 mg/kg of benserazide (Sigma-Aldrich) (i.p.) for 16 days (Day 1–16). All compounds were administered 6 h post-MPTP injection to avoid any effect of compounds on the MPTP metabolism in the brain. Motor and non-motor related behavior tests were performed on the following days as described in Fig. 4a in an assessor- and observer-blinded fashion. Pre-training and baseline setup for motor-related behaviors were performed 3 days prior to the injections. Mice were sacrificed and subjected to immunohistochemistry. Mice were housed at the Animal Care Facilities of McLean Hospital under a 12-h light/12-h dark cycle, ambient temperature and humidity. Animals were handled in accordance with McLean Hospital’s Institutional Animal Care and Use Committee (Protocol #: 2015N000002) and followed National Institutes of Health guidelines.
Mice were placed in a transparent plastic cylinder (15.5 cm high, 12.7 cm diameter) with a mirror behind it. Spontaneous activity was recorded and measured as counting the number of rearing events for 3 min session. A rear was considered only when the mouse touched the wall of the cylinder with its forelimb paws while standing on its hindlimbs (vertical movement) to count meaningful physiological movements.

[8] = tested on: MPTP-induced male mice; assay: AIMs scoring (dyskinesia), MPTP-induced PD model mice; format: in vivo, mouse; details: for AIMs score (20-140 min): Figure 4f, MPTP-induced mice, individual animal values
Method: Male C57BL/6 J mice (8–10 weeks, 25–30 g; Jackson Laboratories) were randomly assigned to 5 groups including vehicle (VEH), MPTP, MPTP + L-DOPA, MPTP + CQ and MPTP + 4A7C-301 (n ≥ 7 for each group). MPTP (Sigma-Aldrich) was intraperitoneally (i.p.) injected (30 mg/kg) for 5 days (Day 1-5). Different dosages of CQ (20, 40, and 80 mg/kg) and 4A7C-301 (1, 5, 20 mg/kg) were first tested to determine the effective dose window, then 40 and 5 mg/kg doses were finally selected for CQ and 4A7C-301 respectively to show the most prominent effects. CQ or 4A7C-301 was dissolved in PBS and administrated (i.p.) for 16 days starting with MPTP injection (Day 1-16). To test dyskinetic involuntary behavior, an L-DOPA injected group was included, which received 50 mg/kg of L-DOPA and 15 mg/kg of benserazide (Sigma-Aldrich) (i.p.) for 16 days (Day 1–16). All compounds were administered 6 h post-MPTP injection to avoid any effect of compounds on the MPTP metabolism in the brain. Motor and non-motor related behavior tests were performed on the following days as described in Fig. 4a in an assessor- and observer-blinded fashion. Pre-training and baseline setup for motor-related behaviors were performed 3 days prior to the injections. Mice were sacrificed and subjected to immunohistochemistry. Mice were housed at the Animal Care Facilities of McLean Hospital under a 12-h light/12-h dark cycle, ambient temperature and humidity. Animals were handled in accordance with McLean Hospital’s Institutional Animal Care and Use Committee (Protocol #: 2015N000002) and followed National Institutes of Health guidelines.
Abnormal involuntary movements (AIMs) were scored using the developed mouse dyskinesia rating scale as described in Sebastianutto et al.. Briefly, 4 mice were recorded simultaneously with a Swann HD Security System (B&H Photo-Video Inc.) for 2 min per session, every 20 min during the 140 min following drug injections (i.e., total 7 sessions), on every other or third day (Day 2, 4, 7, 9, 11, 13, and 16). Dyskinetic movements were scored for 3 subtypes of basic AIMs including axial, forelimb and orolingual AIMs, based on the severity scale from 0 to 4 which measures the duration of AIMs (0 = no dyskinesia; 1 = display dyskinesia for <50% of the observation time; 2 = display dyskinesia for >50% of the observation time; 3 = display dyskinesia for the entire observation period but ceased upon external stimuli; 4 = display continuous and unceasing dyskinesia). To get a better and more sensitive validation of mice dyskinesia, we included an amplitude AIMs score, which rates the degree of deviation of body part or muscle position from its resting position on a 0-4 scale as previously described. Finally, global AIMs score was calculated by multiplying basic AIMs and amplitude AIMs scores for each subtype on each session. Data points were plotted as the grand total of individual AIMs score on each testing day.

[9] = tested on: MPTP-induced male mice; assay: IHC/stereology of TH+ fibers, TH+ DA neurons and NeuN+ neurons, MPTP-induced mice; format: in vivo, mouse; details: MPTP-induced mice, individual animal values
Method: as §3
(§4) Images were acquired using a KEYENCE microscope and quantified as the number or optical density of immunoreactive cells using ImageJ software.
(§5) The numbers of TH^+ DA neurons, NeuN^+ neurons, pS129 αSyn^+ cells in the SN and Iba-1^+ microglia in the SN and striatum were stereologically counted in six coronal sections (30 µm thickness) taken every 6th section (180 µm intervals) for each brain. The boundaries of the SN and striatum were delimited at low magnification (4X) to estimate each total area. Immunoreactive cells were counted with images taken at high magnification (×40) by a single blinded investigator. The group mean of the total number of immunoreactive cells from each brain was transformed as percentage of the number in the control group (%). For AAV-αSyn-induced mice, the group mean of the total number of cells in the ipsilateral side was transformed as a percentage of that observed in the contralateral side.

[10] = tested on: MPTP-induced male mice; assay: Pole test, MPTP-induced PD model mice; format: in vivo, mouse
Method: as §3
Mice were trained to descend a vertical metal rod wrapped with rough tape (80 cm high, 12 mm diameter) once per day for 2 days, and then the baseline was measured before the pole test (3 days before the MPTP injection or the first pole test at week 2). Mice were placed head-upward on the pole and total descent time was recorded.

[11] = tested on: MPTP-induced male mice; assay: IHC of Iba-1+ microglia in STR and SNpc, MPTP-induced mice; format: in vivo, mouse; details: MPTP-induced mice, individual animal values
Method: as §3, §4, §5

[12] = tested on: MPTP-induced male mice; assay: Rotarod, sub-chronic MPTP-induced PD model mice; format: in vivo, mouse
Method: as §3
Mice were pre-trained on an automated 5-lane rotarod unit (10 rpm, 3 min) for 2 days and the baseline was measured (10 rpm, 90 sec) before the rotarod test (3 days before the MPTP injection or the first rotarod test at week 2). Rotarod measurements were performed using an accelerating protocol, accelerated smoothly from 2 to 30 rpm for 5 min. Time on the rotating rod was measured automatically by placing a trip switch under the floor beneath the rotating drum.

[13] = tested on: MPTP-induced male mice; assay: Olfactory discrimination test, MPTP-induced PD model mice; format: in vivo, mouse; details: Figure 4e, MPTP-induced mice, individual animal values
Method: as §3
The olfactory discrimination test was designed based on Prediger et al.. Briefly, mice were placed in a chamber (40 (w) × 20 (d) × 20 (h) cm) segmented with two identical compartments containing fresh sawdust (non-familiar odor) on one side and unchanged sawdust (familiar odor; maintained for 3 days before the test) on the other side. Mice could choose between one or another area by freely passing through an open door, for 5 min. Mice movements were monitored with EthoVision XT version 7.0 (Noldus) and time (s) and distance (cm) traveled in each compartment were recorded and analyzed.

[14] = CQ 40, 4A7C-301 5, L-DOPA 50 mg/kg/day, i.p., 16 days

Luciferase activity (fold), Nur77 ([1]; listed as cytosporone B): robustly increased
Structure (SMILES): CCCCCCCC(=O)c1c(O)cc(O)cc1CC(=O)OCC [Cytosporone B, cytosporone B]
Luciferase activity (fold), Nur77 [1]: 13.029 fold and 14.4047 fold and 12.8586 fold

Structure (SMILES): CCN(CC)Cc1cc(Nc2ccnc3cc(Cl)ccc23)ccc1O [AQ, amodiaquine]
Luciferase activity (fold) [2]: 14.9384 fold and 15.2215 fold and 14.6264 fold
Luciferase activity (fold) [3]: 14.5075 fold and 14.599 fold and 17.3856 fold
Luciferase activity (fold) [4]: 16.1226 fold and 16.0906 fold and 15.547 fold
Luciferase activity (fold) [5]: 15.1749 fold and 15.4902 fold and 14.0814 fold
Luciferase activity (fold) [6]: 14.8074 fold and 14.193 fold and 15.2957 fold

abnormal involuntary movements (AIMs) (in words) ([8]; CQ 40, 4A7C-301 5, L-DOPA 50 mg/kg/day, i.p.): severe AIMs
Structure (SMILES): N[C@@H](Cc1ccc(O)c(O)c1)C(=O)O [L-DOPA]
motor function, cylinder test (in words) [7, 14]: significantly rescued
Number of rearing ([7]; Figure 4d, MPTP-induced mice, individual animal values): 34 and 77 and 71 and 22 and 24 and 17 and 21 and 55 and 32 and 29
AIMs score (20-140 min) ([8]; day 2): 7 and 5.5 and 11 (2×) and 6 and 14 and 20 and 4 and 12 and 5 and 16.3
AIMs score (20-140 min) ([8]; day 4): 9 and 13 and 14 and 12 (2×) and 16 (2×) and 17 (2×) and 27 (2×)
AIMs score (20-140 min) ([8]; day 7): 21.5 and 27.5 and 12 and 55 and 25.5 and 35 and 14 and 56 and 31.5 and 46 and 20
AIMs score (20-140 min) ([8]; day 9): 23 (2×) and 26 and 21 (3×) and 19 (2×) and 42 and 18 and 44
AIMs score (20-140 min) ([8]; day 11): 28 and 33 and 23 and 27 and 20 and 35 (2×) and 12 and 55.5 and 30.5 and 61
AIMs score (20-140 min) ([8]; day 13): 63.5 and 30.5 and 43 and 32.5 and 36 and 50 and 34 and 34.5 and 53.25 and 63 and 56
AIMs score (20-140 min) ([8]; day 16): 110.5 and 38.5 (2×) and 56 and 60.5 and 40.5 and 47.5 and 84 and 48.5 and 67.5 and 83.5
TH+ neurons in SNpc (% of control) ([9]; Figure 4j): 85.08 % of control and 29.95 % of control and 41.78 % of control and 36.5 % of control and 16.11 % of control and 47.32 % of control and 20.39 % of control
NeuN+ neurons in SNpc (% of control) ([9]; Figure 4k): 54.87 % of control and 63.58 % of control and 65.33 % of control and 79.48 % of control
TH fiber density in STR (% of control) ([9]; Figure 4h): 32.4 % of control and 36.19 % of control and 33.35 % of control and 30.68 % of control and 30.71 % of control and 45.79 % of control and 28.8 % of control
motor function, pole test (in words) [10, 14]: significantly rescued
Time to traverse ([10]; Figure 4c, MPTP-induced mice, individual animal values): 8.78 s and 7.65 s and 6.89 s and 8.14 s and 4.4 s and 7.41 s and 5.91 s and 7.98 s and 7.2 s and 9.47 s
Iba-1+ cells in STR (% of control) ([11]; Figure 4m): 163.11 % of control and 168.08 % of control and 185.26 % of control and 234.36 % of control and 189.06 % of control and 208.32 % of control and 222.78 % of control
Iba-1+ cells in SNpc (% of control) ([11]; Figure 4n): 319.52 % of control and 324.44 % of control and 366.71 % of control and 419.8 % of control and 373.6 % of control and 282.16 % of control and 446.35 % of control
motor function, rotarod (in words) [12, 14]: significantly rescued
Latency to fall ([12]; Figure 4b, MPTP-induced mice, individual animal values): 137.97 s and 138.13 s and 80.13 s and 101.23 s and 128.1 s and 204.93 s and 146.8 s and 175.2 s and 116.5 s and 196.07 s
Velocity [13]: 4.7 cm/s and 5.67 cm/s and 6.49 cm/s and 5.88 cm/s and 6.16 cm/s and 7.7 cm/s and 9.82 cm/s and 6.86 cm/s and 7.1 cm/s and 6.45 cm/s and 7.2 cm/s
Duration to stay (sec), New bedding ([13]; New bedding): 183.25 s and 108.99 s and 116.25 s and 132.99 s and 167.47 s and 141.68 s and 212.98 s and 167.63 s and 167.4 s and 102.43 s and 140.79 s
Duration to stay (sec), Old bedding ([13]; Old bedding): 133.6 s and 197.16 s and 159.56 s and 114.75 s and 189.57 s and 183.55 s and 166.31 s and 132.11 s and 158.67 s and 90.56 s and 134.77 s
